“And” between values parts separate entries of the source, which are not always exact repeats. Identical values can stand only once. Results filed as inconclusive are left out.
System: BDF1 mice, colon carcinoma 38 sc, T/C %
Experiment: NCI In Vivo Anticancer Drug Screen. Data for tumor model Colon Carcinoma 38 (subcutaneous) in B6D2F1 (BDF1) mice
Settings: endpoint: median tumor weight (est.), higher = larger tumour
Method in brief: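 Ratio of survival or tumor size, compound-treated animals relative to vehicle controls, in tumor-bearing mice.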

[1] = dose: 6.25 mg/kg/injection, schedule: Q07DX002 (ip), vehicle: Klucel (hydroxypropylcellulose) (HPC)
[2] = dose: 12.5 mg/kg/injection, schedule: Q07DX002 (ip), vehicle: Klucel (hydroxypropylcellulose) (HPC)
[3] = dose: 25.0 mg/kg/injection, schedule: Q07DX002 (ip), vehicle: Klucel (hydroxypropylcellulose) (HPC)
[4] = dose: 50.0 mg/kg/injection, schedule: Q07DX002 (ip), vehicle: Klucel (hydroxypropylcellulose) (HPC)
[5] = dose: 100.0 mg/kg/injection, schedule: Q07DX002 (ip), vehicle: Klucel (hydroxypropylcellulose) (HPC)
[6] = dose: 200.0 mg/kg/injection, schedule: Q07DX002 (ip), vehicle: Klucel (hydroxypropylcellulose) (HPC)
[7] = dose: 25.0 mg/kg/injection, schedule: Q07DX002 (ip), vehicle: saline with Tween-80
[8] = dose: 50.0 mg/kg/injection, schedule: Q07DX002 (ip), vehicle: saline with Tween-80
[9] = dose: 200.0 mg/kg/injection, schedule: Q07DX002 (ip), vehicle: saline with Tween-80
[10] = dose: 25.0 mg/kg/injection, schedule: Q07DX003 (ip), vehicle: saline
[11] = dose: 100.0 mg/kg/injection, schedule: Q07DX003 (ip), vehicle: saline
[12] = dose: 200.0 mg/kg/injection, schedule: Q07DX003 (ip), vehicle: saline
[13] = dose: 12.5 mg/kg/injection, schedule: Q07DX002 (ip), vehicle: saline
[14] = dose: 25.0 mg/kg/injection, schedule: Q07DX002 (ip), vehicle: saline
[15] = dose: 50.0 mg/kg/injection, schedule: Q07DX002 (ip), vehicle: saline
[16] = dose: 100.0 mg/kg/injection, schedule: Q07DX002 (ip), vehicle: saline
[17] = dose: 200.0 mg/kg/injection, schedule: Q07DX002 (ip), vehicle: saline
[18] = dose: 400.0 mg/kg/injection, schedule: Q07DX002 (ip), vehicle: saline
[19] = dose: 400.0 mg/kg/injection, schedule: Q07DX002 (ip), vehicle: Klucel (hydroxypropylcellulose) (HPC)
[20] = dose: 800.0 mg/kg/injection, schedule: Q07DX002 (ip), vehicle: Klucel (hydroxypropylcellulose) (HPC)
[21] = dose: 6.25 mg/kg/injection, schedule: Q07DX002 (ip), vehicle: saline with Tween-80

In the case of C[C@]12CC[C@@H]3c4ccc(O)cc4CC[C@H]3[C@@H]1CC[C@@H]2O, the T/C [1] is reported as 83 % of control, the T/C [2] is reported as 108 % of control and 249 % of control and the T/C [3] is reported as 282 % of control and 99 % of control. For the same molecule, the T/C [4] was 260 % of control, the T/C [5] was 282 % of control and the T/C [6] was 117 % of control and 271 % of control.
In the case of c1ccc2c(c1)nnn1c3cnccc3nc21, the T/C (dose: 3.12 mg/kg/injection, schedule: Q07DX002 (ip), vehicle: saline with Tween-80) is reported as 63 % of control and 88 % of control and the T/C [7] is reported as 82 % of control and 85 % of control.
O=C1NC(=O)C2C3C=CC(C12)C1C2C(=O)NC(=O)C2C31 (centres undefined) was tested, and the T/C (dose: 400.0 mg/kg/injection, schedule: Q07DX002 (ip), vehicle: saline with Tween-80) was 29 % of control and 50 % of control.
In the case of Cc1cc2c(=O)cc(-c3ccccc3Cl)oc2c(C(=O)O)c1C, the T/C (dose: 100.0 mg/kg/injection, schedule: Q07DX002 (ip), vehicle: sodium bicarbonate) is reported as 56 % of control, the T/C (dose: 200.0 mg/kg/injection, schedule: Q07DX002 (ip), vehicle: sodium bicarbonate) is reported as 35 % of control and the T/C (dose: 400.0 mg/kg/injection, schedule: Q07DX002 (ip), vehicle: sodium bicarbonate) is reported as 40 % of control.
For Cc1c(N)nc(C(CC(N)=O)NCC(N)C(N)=O)nc1C(=O)NC(C(=O)NC(C)C(O)C(C)C(=O)NC(C(=O)NCCc1nc(-c2nc(C(=O)NCCCNC(C)c3ccccc3)cs2)cs1)C(C)O)C(OC1OC(CO)C(O)C(O)C1OC1OC(CO)C(O)C(OC(N)=O)C1O)c1cnc[nH]1 (centres undefined), the T/C (dose: 0.5 mg/kg/injection, schedule: Q07DX003 (ip), vehicle: saline) was 75 % of control, the T/C (dose: 1.0 mg/kg/injection, schedule: Q07DX002 (ip), vehicle: saline) was 66 % of control and the T/C (dose: 1.0 mg/kg/injection, schedule: Q07DX003 (ip), vehicle: saline) was 90 % of control. For the same molecule, the T/C (dose: 2.0 mg/kg/injection, schedule: Q07DX002 (ip), vehicle: saline) was 75 % of control, the T/C (dose: 2.0 mg/kg/injection, schedule: Q07DX003 (ip), vehicle: saline) was 102 % of control and the T/C (dose: 4.0 mg/kg/injection, schedule: Q07DX003 (ip), vehicle: saline) was 62 % of control. The T/C (dose: 8.0 mg/kg/injection, schedule: Q07DX003 (ip), vehicle: saline) was 83 % of control, the T/C (dose: 16.0 mg/kg/injection, schedule: Q07DX003 (ip), vehicle: saline) was 92 % of control and the T/C (dose: 32.0 mg/kg/injection, schedule: Q07DX002 (ip), vehicle: saline) was 29 % of control.
NCC1CCC(C(=O)O)CC1 (centres undefined) was tested, and the T/C [7] was 83 % of control, the T/C [8] was 104 % of control and the T/C (dose: 100.0 mg/kg/injection, schedule: Q07DX002 (ip), vehicle: saline with Tween-80) was 99 % of control. The T/C [9] was 102 % of control.
With O=C1C=CN(C2OC(CO)C(O)C2O)C(=O)C1 (centres undefined) the T/C [10] was 121 % of control, the T/C [11] was 73 % of control and the T/C [12] was 163 % of control.
CCCCCCCCCCCCCCCC(=O)Nc1ccn(C2OC(CO)C(O)C2O)c(=O)n1 (centres undefined) was tested, and the T/C [13] was 41 % of control, the T/C [14] was 88 % of control and the T/C [15] was 50 % of control. For the same molecule, the T/C [16] was 5 % of control, the T/C [17] was 16 % of control and the T/C [18] was 1 % of control.
For O=[Te]=O, the T/C [14] was 98 % of control and the T/C [15] was 93 % of control.
In the case of Cc1cc(SCC(=O)c2ccc(Br)cc2)cc(C)[o+]1, the T/C [13] is reported as 122 % of control, the T/C [14] is reported as 77 % of control and 101 % of control and the T/C [15] is reported as 111 % of control and 107 % of control. For the same molecule, the T/C [16] was 98 % of control and 100 % of control and the T/C [17] was 100 % of control.
With Cc1ccc(C2NC(=O)c3ccccc3N2)s1 (centres undefined) the T/C [3] was 99 % of control, the T/C [4] was 92 % of control and the T/C [5] was 103 % of control. The T/C [6] was 92 % of control, the T/C [19] was 84 % of control and the T/C [20] was 90 % of control.
For c1csc(C[N+]23CN4CN(CN(C4)C2)C3)c1, the T/C [14] was 77 % of control, the T/C [15] was 108 % of control and the T/C [16] was 81 % of control. For the same molecule, the T/C [17] was 97 % of control and the T/C [18] was 112 % of control.
In the case of Cc1nn(CCO)c(C)c1N=[N+]([O-])c1c(C)nn(CCO)c1C, the T/C [1] is reported as 116 % of control, the T/C [21] is reported as 102 % of control and the T/C [2] is reported as 86 % of control. For the same molecule, the T/C (dose: 12.5 mg/kg/injection, schedule: Q07DX002 (ip), vehicle: saline with Tween-80) was 98 % of control, the T/C [3] was 108 % of control and 91 % of control and the T/C [4] was 100 % of control and 104 % of control. For the same molecule, the T/C [8] was 86 % of control, the T/C [6] was 24 % of control and the T/C [9] was 79 % of control.
With O=c1[nH]c(=O)n(C2CC(O)C(CO)O2)cc1Br (centres undefined) the T/C [4] was 112 % of control, the T/C [19] was 86 % of control and 87 % of control and the T/C [20] was 88 % of control.
For O=Cc1ccc([N+](=O)[O-])s1, the T/C [21] was 124 % of control and 108 % of control, the T/C [7] was 108 % of control and the T/C [8] was 57 % of control.
For c1ccc([P+](c2ccccc2)(c2ccccc2)c2ccccc2)cc1, the T/C (dose: 0.75 mg/kg/injection, schedule: Q07DX002 (ip), vehicle: saline) was 91 % of control, the T/C (dose: 0.75 mg/kg/injection, schedule: Q07DX003 (ip), vehicle: saline) was 84 % of control and the T/C (dose: 1.5 mg/kg/injection, schedule: Q07DX002 (ip), vehicle: saline) was 95 % of control. The T/C (dose: 1.5 mg/kg/injection, schedule: Q07DX003 (ip), vehicle: saline) was 83 % of control, the T/C (dose: 3.0 mg/kg/injection, schedule: Q07DX002 (ip), vehicle: saline) was 77 % of control and the T/C (dose: 3.0 mg/kg/injection, schedule: Q07DX003 (ip), vehicle: saline) was 69 % of control. For the same molecule, the T/C (dose: 6.0 mg/kg/injection, schedule: Q07DX002 (ip), vehicle: saline) was 112 % of control and the T/C (dose: 6.0 mg/kg/injection, schedule: Q07DX003 (ip), vehicle: saline) was 66 % of control.
For CCOC(=O)c1c[nH]c2oc(/C=N/N3CC(CN4CCOCC4)OC3=O)cc2c1=O (centres undefined), the T/C [10] was 116 % of control and 120 % of control, the T/C [11] was 93 % of control and 102 % of control and the T/C (dose: 150.0 mg/kg/injection, schedule: Q07DX002 (ip), vehicle: other) was 92 % of control. For the same molecule, the T/C [12] was 108 % of control and 106 % of control, the T/C (dose: 300.0 mg/kg/injection, schedule: Q07DX002 (ip), vehicle: other) was 59 % of control and the T/C (dose: 600.0 mg/kg/injection, schedule: Q07DX002 (ip), vehicle: other) was 59 % of control. For the same molecule, the T/C (dose: 900.0 mg/kg/injection, schedule: Q07DX002 (ip), vehicle: other) was 34 % of control.
With Cc1c(N)nc(C(CC(N)=O)NCC(N)C(N)=O)nc1C(=O)NC(C(=O)NC(C)C(O)C(C)C(=O)NC(C(=O)NCCc1nc(-c2nc(C(=O)NCCCNCCCc3ccccn3)cs2)cs1)C(C)O)C(OC1OC(CO)C(O)C(O)C1OC1OC(CO)C(O)C(OC(N)=O)C1O)c1cnc[nH]1 (centres undefined) the T/C (dose: 0.1 mg/kg/injection, schedule: Q07DX003 (ip), vehicle: saline) was 96 % of control, the T/C (dose: 0.2 mg/kg/injection, schedule: Q07DX003 (ip), vehicle: saline) was 67 % of control and the T/C (dose: 0.4 mg/kg/injection, schedule: Q07DX002 (ip), vehicle: water) was 81 % of control. For the same molecule, the T/C (dose: 0.4 mg/kg/injection, schedule: Q07DX003 (ip), vehicle: saline) was 72 % of control, the T/C (dose: 0.8 mg/kg/injection, schedule: Q07DX002 (ip), vehicle: water) was 66 % of control and the T/C (dose: 0.8 mg/kg/injection, schedule: Q07DX003 (ip), vehicle: saline) was 105 % of control. For the same molecule, the T/C (dose: 1.6 mg/kg/injection, schedule: Q07DX002 (ip), vehicle: water) was 75 % of control, the T/C (dose: 1.6 mg/kg/injection, schedule: Q07DX003 (ip), vehicle: saline) was 71 % of control and the T/C (dose: 3.2 mg/kg/injection, schedule: Q07DX002 (ip), vehicle: water) was 72 % of control. The T/C (dose: 3.2 mg/kg/injection, schedule: Q07DX003 (ip), vehicle: saline) was 60 % of control, the T/C (dose: 6.25 mg/kg/injection, schedule: Q07DX002 (ip), vehicle: saline) was 70 % of control and the T/C (dose: 6.4 mg/kg/injection, schedule: Q07DX002 (ip), vehicle: water) was 41 % of control. For the same molecule, the T/C (dose: 12.8 mg/kg/injection, schedule: Q07DX002 (ip), vehicle: water) was 45 % of control, the T/C [14] was 32 % of control and 33 % of control and the T/C [16] was 29 % of control.
With CNC(=O)ON(C(C)=O)C(=O)NC the T/C [14] was 87 % of control and 106 % of control and the T/C [16] was 103 % of control.

Source: PubChem BioAssay AID212 (DTP/NCI, 2004)
